Laboratory results published in patent publication US11331273B2, “Film-coated tablet having high chemical stability of active ingredient” (Intercept Pharmaceuticals, Inc., priority 2016, dated 2022).
“And” between values parts separate entries of the source, which are not always exact repeats. Identical values can stand only once.

Experiment: Storage stability of obeticholic acid (unmodified) in test tubes: dimer quantified per Test Example 2
Assay type: physicochemical
Description: Obeticholic acid (unmodified) was weighed out in amounts of 5 mg into test tubes to serve as individual samples.
Test Lubes containing the obeticholic acid (unmodified) prepared in Example 1 were stored under the following conditions. The amounts of obeticholic acid dimer generated before (initial) and after storage were measured in accordance with Test Example 2. • Four weeks (4 W) at 50° C. and 85% RH (open) • Four weeks (4 W) at 60° C. (closed)
The amount of obeticholic acid dimer generated was measured in the same manner described in Test Example 1, with the exception that the sample solution was prepared as follows.
Acetonitrile/water (9/1) was added in an amount of exactly 10 mL to test tubes that had been retrieved from storage, and the contents were ultrasounded to extract the obeticholic acid. Following centrifugation (10 min at 3000 rpm), the supernatant was made into samples for HPLC assay (500 μg/mL obeticholic acid).

**Q.** Which results are given for `CC[C@H]1[C@@H](O)[C@@H]2[C@H](CC[C@]3(C)[C@@H]([C@H](C)CCC(=O)O)CC[C@@H]23)[C@@]2(C)CC[C@@H](O)C[C@@H]12` [Comparative Example 3, 3α,7α-dihydroxy-6α-ethyl-5β-cholan-24-oic acid]?
**A.** Amount of obeticholic acid dimer production (%) (50° C., 85% RH, open, 4 W): 0.83%; Increase (%) in obeticholic acid dimerization from initial product (50° C., 85% RH, open, 4 W): 0.79%; Amount of obeticholic acid dimer production (%) (60° C., closed, 4 W): 0.81%; Increase (%) in obeticholic acid dimerization from initial product (60° C., closed, 4 W): 0.77% and 0.78%; Amount of obeticholic acid dimer production (%) (Initial): 0.04%
